According to PubChem BioAssay (NCI):
Where “and” joins values, the source holds several entries; their conditions need not be identical. Identical values can stand only once.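 How tested: cells in 96-well plates exposed to compound for 48 hours at five concentrations. GI50 marks 50% less growth. TGI: total growth inhibition.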

How the values were obtained:
Assay in all cases: NCI-60 cell line screen, 48 h
OVCAR-5 ovarian = tested on: OVCAR-5 ovarian
UO-31 renal = tested on: UO-31 renal
U251 CNS = tested on: U251 CNS
OVCAR-8 ovarian = tested on: OVCAR-8 ovarian
SK-OV-3 ovarian = tested on: SK-OV-3 ovarian
HT29 colon = tested on: HT29 colon
HCC-2998 colon = tested on: HCC-2998 colon
A498 renal = tested on: A498 renal
HOP-92 NSCLC = tested on: HOP-92 NSCLC
NCI-H522 lung = tested on: NCI-H522 lung

Compound | GI50 (OVCAR-5 ovarian) [µM] | TGI (OVCAR-5 ovarian) [µM] | GI50 (UO-31 renal) | TGI (UO-31 renal) [µM] | GI50 (U251 CNS) [µM] | TGI (U251 CNS) [µM] | GI50 (OVCAR-8 ovarian) | TGI (OVCAR-8 ovarian) [µM] | GI50 (SK-OV-3 ovarian) [µM] | TGI (SK-OV-3 ovarian) [µM] | GI50 (HT29 colon) | TGI (HT29 colon) | GI50 (HCC-2998 colon) | TGI (HCC-2998 colon) | GI50 (A498 renal) [µM] | TGI (A498 renal) [µM] | TGI (HOP-92 NSCLC) | TGI (NCI-H522 lung) [µM] | GI50 (NCI-H522 lung) [µM] | GI50 (HOP-92 NSCLC)
COc1ccc(NC(=O)/C=C(C)/C=C/C=C(C)/C=C/C2=C(C)CCCC2(C)C)cc1 | 15.9 | 30.7 | 10.8 µM | 25.4 | 4.76 | 17.9 | 13 µM | 38.5 | 17 | 30.7 | 3.22 µM | 10.2 µM | 17.7 µM | 33.5 µM | 19.9 | 34.5 | – | – | – | –
[O-][N+]1(CC[N+]2([O-])CCCCC2)CCCCC1 | – | > 100 | – | > 100 | – | > 100 | – | > 100 | – | > 100 | – | > 100 µM | – | – | – | > 100 | > 100 µM | > 100 | – | –
CCn1c(-c2cc3c([nH]c4ccccc43)c(-c3cccc(O)c3)n2)n[nH]c1=S | 6.34 | 32.9 | 2.24 µM | 11.8 | 3.18 | 15.1 | 3.96 µM | 31 | 4.32 | 17.5 | 2.74 µM | 6.97 µM | 4.77 µM | 17.5 µM | 0.327 | 4.38 | – | 7.07 | 2.02 | –
COC(=O)C1=C(CS(=O)c2ccc([N+](=O)[O-])cc2[N+](=O)[O-])C2C=CC1C2 (stereo unspecified) | – | > 100 | – | 45.9 | – | 49.4 | – | 80.9 | – | > 100 | – | 35.2 µM | – | 95.3 µM | – | > 100 | – | 27.3 | – | –
CCCCCCCC(=O)OCCCC1[C@]2(C)CC[C@@]3(C)C([C@H](C)CCC=C(C)C)CC[C@]3(C)C2CC[C@]12OC2(C)C (stereo partly specified) | > 100 | > 100 | 31.9 µM | > 100 | 27.7 | 93.3 | 64 µM | > 100 | – | – | 42.3 µM | > 100 µM | 18.6 µM | 47.5 µM | > 100 | > 100 | > 100 µM | > 100 | 35.1 | 28.2 µM
C[Si](C)(C)C(CCCCSc1ccccc1)(Sc1ccccc1)Sc1ccccc1 | – | – | – | > 100 | – | > 100 | – | > 100 | – | > 100 | – | – | – | > 100 µM | – | > 100 | > 100 µM | – | – | –
C#CCNC(=O)ON1C(=O)CCC1=O | – | > 100 | – | > 100 | – | > 100 | – | > 100 | – | > 100 | – | > 100 µM | – | – | – | > 100 | – | > 100 | – | –
NS(=O)(=O)c1ccc(N2N=C3c4ccccc4CC3C2c2cccs2)cc1 (stereo unspecified) | 26.6 | > 100 | 39.4 µM | > 100 | 19.4 | 39.6 | 15.3 µM | 40.1 | 48 | > 100 | 26.1 µM | > 100 µM | 14.8 µM | 39.6 µM | – | – | 55.8 µM | > 100 | 39.3 | 25.8 µM
O=C1OC(c2ccccc2)=N/C1=C\c1ccc(Oc2ccc(Cl)c(Cl)c2)cc1 | – | > 100 | – | 78.8 | – | 65.9 | – | 46 | – | – | – | > 100 µM | – | > 100 µM | – | > 100 | > 100 µM | > 100 | – | –
COC(=O)C12CC(NC(=O)c3csc([C@@H](C[C@H](C(C)C)N(C)C(=O)[C@@H](NC(=O)[C@H]4CCCCN4C)C4CC4)OC(C)=O)n3)(C1)C2 | 0.135 | > 16.7 | 0.614 µM | > 16.7 | 0.0474 | > 16.7 | 0.0501 µM | > 16.7 | 0.0735 | > 16.7 | 0.0134 µM | > 16.7 µM | 0.0851 µM | > 16.7 µM | 0.0833 | > 4.46 | – | 3.15 | 0.00375 | –
NC(=O)[C@@H](CC1CC1)[C@@H](CCC(F)(F)F)C(=O)N[C@H]1N=C(c2ccccc2)c2cccc(F)c2NC1=O | > 100 | > 100 | 75.3 µM | > 100 | > 100 | > 100 | > 100 µM | > 100 | > 100 | > 100 | > 100 µM | > 100 µM | > 100 µM | > 100 µM | – | – | > 100 µM | > 100 | > 100 | 19.3 µM
Cl/C(N=Nc1ccccc1)=N/Nc1ccccc1 | – | > 100 | – | – | – | > 100 | – | > 100 | – | > 100 | – | > 100 µM | – | > 100 µM | – | > 100 | > 100 µM | > 100 | – | –
O=C(O)c1cc(=O)c2c([nH]c3ccccc32)s1 | – | > 100 | – | > 100 | – | – | – | > 100 | – | > 100 | – | – | – | > 100 µM | – | – | > 100 µM | > 100 | – | –
CN(C)/C=N\c1ccnc(=O)[nH]1 | – | > 100 | – | > 100 | – | > 100 | – | > 100 | – | > 100 | – | > 100 µM | – | – | – | > 100 | > 100 µM | > 100 | – | –
Cc1nc2ccc(Br)cc2c(=O)n1-c1ccc(NC2OCC(O)C(O)C2O)cc1 (stereo unspecified) | – | > 100 | 35.8 µM and > 100 µM | > 100 | – | – | 43.5 µM and > 100 µM | > 100 | > 100 | > 100 | 20.7 µM and > 100 µM | 48.7 µM and > 100 µM | 19.1 µM and > 100 µM | 40.4 µM and > 100 µM | – | > 100 | 64.2 µM and > 100 µM | – | – | 22.4 µM and > 100 µM
COc1ccc(Nc2nc3ccccc3c3occc23)cc1 | 7.95 | 16.6 | 12.3 µM | > 50 | 5.13 | 11.7 | 8.51 µM | 22.7 | 0.005 | 9.95 | – | – | 5 µM | 11.1 µM | – | – | 21.8 µM | 33 | 14.5 | 7.62 µM
CN1CCN(CCOc2ccc(-c3cnc4c(-c5cccc(F)c5)cnn4c3)cc2)CC1 | 1.79 | 3.55 | 1.47 µM | 3.37 | 1.64 | 3.57 | 2.45 µM | 7.12 | – | – | 1.51 µM | 3.32 µM | 1.7 µM | 3.28 µM | 1.76 | 5.7 | 3.2 µM | 3.65 | 1.73 | 1.41 µM
